What all share (experiment): NCI anticancer screen, dose series, 48 h
The subject of assay [1] is CCRF-CEM.
Assay [2] has as its system HCT-116.
The subject of assay [3] is HCC 2998.
Assay [4] concerns SF-268.
Assay [5] deals with HCT-15.
Assay [6] relates to HT-29.
Assay [7] has as its system SW-620.
For assay [8], the system named is UACC-62.
Assay [9] concerns HOP-62.
Assay [10] concerns SK-OV-3.
Assay [11] concerns NCI-H522.
Assay [12] deals with M14.
Assay [13] relates to MOLT-4.
Assay [14] has as its system HL-60.
Assay [15] has as its system IGROV-1.
Assay [16] deals with Malme-3M.
Assay [17] deals with K562.
Assay [18] deals with SF-295.
Assay [19] relates to SK-MEL-5.
Assay [20] deals with NCI-H460.

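Dose response: 5 concentrations. Exposure: 48 h. Format: 96-well plates. Endpoint: linear interpolation; highest concentration if not reached. GI50 marks 50% less growth.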 Active and inactive are the calls of the source. No stated cut-off is given here; in the data, active = GI50 up to about 1.1 µM and inactive = higher. Where only a bound is given, the exact number is not on record here.

In the case of `O=c1ccc2nc3cc(Br)ccc3sc-2c1`, the GI50 in assay [1] was 12.9 µM (inactive); in assay [2], > 100 µM (inactive); in [3] it was > 100 µM (inactive); in assay [4], > 100 µM (inactive); in [5], 74.1 µM; in assay [6] it was > 100 µM (inactive). The GI50 in assay [7] was > 100 µM (inactive); in assay [8], 30.9 µM (inactive); in assay [9], > 100 µM (inactive); in [10] it was > 100 µM (inactive); in assay [11], 56.8 µM (inactive); in assay [12], > 100 µM (inactive). Further, the GI50 in assay [13] is 21.7 µM (inactive); in assay [14], 13.5 µM (inactive); in assay [15], > 100 µM (inactive); in [16], > 100 µM (inactive); in [17], 22.4 µM (inactive); in assay [18], > 100 µM (inactive). Further, the GI50 was 62.8 µM (inactive) in assay [19] and > 100 µM (inactive) in [20].

For the compound `CN(C)CCCNC(=O)N/N=C/c1ccccn1`, the GI50 in assay [1] was > 10 µM (inactive); in assay [2] it was > 10 µM (inactive); in [3] it was > 10 µM (inactive); in assay [4] it was > 10 µM (inactive); in assay [5], over 10 µM; in assay [6], > 10 µM (inactive). The GI50 in assay [7], in [8], in [9], in assay [10], in [11] and in [12] was > 10 µM (inactive) in each case. The GI50 in [13], in [14], in [15], in assay [16], in [17] and in [18] was > 10 µM (inactive) throughout. For the same compound, the GI50 in assay [19] and in assay [20] was > 10 µM (inactive) each time.

Take `NC(Cc1ccc(OCc2ccccc2)cc1)C(=O)NC(Cc1ccccc1)C(=O)Oc1c(Cl)c(Cl)c(Cl)c(Cl)c1Cl` (centres undefined): the GI50 was > 100 µM (inactive) in assay [1]; 17.5 µM (inactive) in assay [2]; 19.1 µM (inactive) in assay [3]; 20.3 µM (inactive) in assay [4]; 16.4 µM in assay [5]; 17.5 µM (inactive) in [6]. Moreover, the GI50 in [7] is 16.8 µM (inactive); in assay [8] it was 17 µM (inactive); in [9] it was 16.6 µM (inactive); in [10], 14.7 µM (inactive); in [11], 23.1 µM (inactive); in [12] it was 14.2 µM (inactive). For the same compound, the GI50 was 39.2 µM (inactive) in [13]; 69.5 µM (inactive) in assay [14]; 15.3 µM (inactive) in assay [15]; 20.9 µM (inactive) in assay [16]; 53.1 µM (inactive) in assay [17]; 17.3 µM (inactive) in [19]. Also, the GI50 in [20] is 14.7 µM (inactive).

In the case of `Cc1ccc2c(c1)C(=O)N(N(C)C)CC(=O)N2`, the GI50 in assay [1] was > 100 µM (inactive); in assay [2], > 100 µM (inactive); in [3], > 100 µM (inactive); in assay [4] it was > 100 µM (inactive); in [5] it was over 100 µM; in [6], > 100 µM (inactive). Also, the GI50 in [7], in assay [8], in assay [9], in [10], in assay [11] and in [12] was > 100 µM (inactive) throughout. Further, the GI50 in [13], in assay [14], in assay [15], in assay [16], in assay [17] and in assay [18] was > 100 µM (inactive) each time. The GI50 in assay [19] and in assay [20] was > 100 µM (inactive) in each case.

Turning to `Cc1cccc(C(C)C)c1NC(=O)CC1Sc2ccccc2NC1=O` (centres undefined), the GI50 is > 100 µM (inactive) in [1]; 55.6 µM (inactive) in assay [2]; > 100 µM (inactive) in [3]; 63 µM (inactive) in [4]; 70.1 µM in [5]; 48.9 µM (inactive) in [6]. The GI50 in assay [7] was 76.4 µM (inactive); in assay [8], 44.4 µM (inactive); in assay [9], > 100 µM (inactive); in [10], > 100 µM (inactive); in [11], 78.7 µM (inactive); in assay [12], 50.1 µM (inactive). Besides, the GI50 was 20.5 µM (inactive) in assay [13]; 46.9 µM (inactive) in [14]; > 100 µM (inactive) in assay [15]; 31.8 µM (inactive) in [16]; 33.1 µM (inactive) in assay [17]; 40.2 µM (inactive) in assay [18]. Further, the GI50 in [19] was 35.4 µM (inactive); in [20], > 100 µM (inactive).

(Values after ChEMBL document CHEMBL1201862, “PubChem BioAssay data set” (2004).)
